The target of the test is T1, human clotting factor VIIa (Homo sapiens, UniProt P08709).
T1 construct: a human clotting factor VIIa (hereinafter, “Factor VIIa”) purified sample; purchased Enzyme Research Laboratories HFVIIa
The test is described as follows: Inhibitory activity against clotting factor VIIa (chromogenic substrate Spectrozyme FVIIa, TF/Factor VIIa enzyme solution). The test is classed as biochemical. To be noted: human Factor VIIa 5 nmol/L with human TF 10 nmol/L, room temperature 40 minutes, 405 nm. The gist of the method:
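Human Factor VIIa (5 nmol/L) with human TF (10 nmol/L) in Tris-BSA buffer pH 7.4 containing 15 mmol/L CaCl2 and cephalin, with Spectrozyme FVIIa substrate. Reaction 40 min at room temperature; 4-nitroanilide read at 405 nm. IC50 by non-linear regression over 100 μmol/L–0.1 nmol/L.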

Each structure is given as a SMILES string. pIC50: −log10 of the molar value.

T1 sequence (P08709 213-466 limits assumed): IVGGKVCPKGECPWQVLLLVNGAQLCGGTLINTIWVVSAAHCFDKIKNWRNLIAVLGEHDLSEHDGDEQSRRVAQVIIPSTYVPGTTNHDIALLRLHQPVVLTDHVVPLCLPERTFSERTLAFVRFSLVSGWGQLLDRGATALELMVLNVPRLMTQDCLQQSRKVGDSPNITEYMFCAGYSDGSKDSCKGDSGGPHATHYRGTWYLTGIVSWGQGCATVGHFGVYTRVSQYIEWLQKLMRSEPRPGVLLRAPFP
T1 sequence (P08709 61-212 limits assumed): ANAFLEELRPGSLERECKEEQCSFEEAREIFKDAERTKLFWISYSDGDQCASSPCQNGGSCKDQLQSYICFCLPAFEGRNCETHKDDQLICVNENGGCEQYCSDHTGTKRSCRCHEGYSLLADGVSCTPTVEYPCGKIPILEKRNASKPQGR
T1 sequence (P13726 33-295 partner): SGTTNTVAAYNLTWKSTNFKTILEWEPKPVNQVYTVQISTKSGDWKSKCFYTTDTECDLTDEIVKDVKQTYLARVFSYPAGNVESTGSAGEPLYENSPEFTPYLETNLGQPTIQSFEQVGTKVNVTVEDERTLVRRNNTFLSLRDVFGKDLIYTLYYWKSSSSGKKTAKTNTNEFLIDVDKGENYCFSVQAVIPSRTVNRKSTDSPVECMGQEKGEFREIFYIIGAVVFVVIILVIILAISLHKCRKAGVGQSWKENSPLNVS

Broadly, the pIC50 is the negative decadic logarithm of the IC50, by convention in mol/L. A high value points to a small IC50. `COc1cc(F)c(C(Nc2ccc(C(=N)N)cc2)c2nn(-c3ncccn3)c(=O)[nH]2)cc1OC` (racemic) [Example 111, 4-{[(R) and (S)-(2-fluoro-4,5-dimethoxyphenyl)-(5-oxo-1-pyrimidin-2-yl-4,5-dihydro-1H-[1,2,4]triazol-3-yl)methyl]amino}benzamidine acetate] showed a negative logarithm of the IC50 (pIC50) of 7.95.

Consider `CCOc1cc(C(Nc2ccc(C(=N)N)cc2)c2nn(-c3ncccn3)c(=O)[nH]2)c(F)cc1OC` (racemic) [Example 115, (R) and (S)-4-{[(5-ethoxy-2-fluoro-4-methoxyphenyl)-(5-oxo-1-pyrimidin-2-yl-4,5-dihydro-1H-[1,2,4]triazol-3-yl)methyl]amino}benzamidine acetate], for which the pIC50 is 7.94.

`COc1cc(C(Nc2ccc(C(=N)N)cc2)c2nn(-c3ncccn3)c(=O)[nH]2)cc(F)c1OC` (racemic) [Example 116, (R) and (S)-4-{[(3-fluoro-4,5-dimethoxyphenyl)-(5-oxo-1-pyrimidin-2-yl-4,5-dihydro-1H-[1,2,4]triazol-3-yl)methyl]amino}benzamidine acetate] gave a negative-log IC50 (pIC50) of 7.92.

In turn, `COc1ccc(C(Nc2ccc(C(=N)N)cc2)c2nn(-c3ncccn3)c(=O)[nH]2)cc1OCCF` (racemic) [Example 117, (R) and (S)-4-({[3-(2-fluoroethoxy)-4-methoxyphenyl]-(5-oxo-1-pyrimidin-2-yl-4,5-dihydro-1H-[1,2,4]triazol-3-yl)methyl}amino)benzamidine acetate] had a pIC50 of 7.65.

Compound `C=CCOc1cc(C(Nc2ccc(C(=N)N)cc2)c2nn(-c3ncccn3)c(=O)[nH]2)ccc1OC` (racemic) [Example 118, (R) and (S)-4-{[(3-allyloxy-4-methoxyphenyl)-(5-oxo-1-pyrimidin-2-yl-4,5-dihydro-1H-[1,2,4]triazol-3-yl)methyl]amino}benzamidine acetate] showed a pIC50 of 8.14.

As to `COc1cc(F)c(C(Nc2ccc(C(=N)N)cc2)c2nn(-c3cccnn3)c(=O)[nH]2)cc1OC` (racemic) [Example 119, (R) and (S)-4-{[(2-fluoro-4,5-dimethoxyphenyl)-(5-oxo-1-pyridazin-3-yl-4,5-dihydro-1H-[1,2,4]triazol-3-yl)methyl]amino}benzamidine acetate], the pIC50 is 8.15.

`CCOc1cc(C(Nc2ccc(C(=N)N)cc2)c2nn(-c3cccnn3)c(=O)[nH]2)ccc1OC` (racemic) [Example 121, (R) and (S)-4-{[(3-ethoxy-4-methoxyphenyl)-(5-oxo-1-pyridazin-3-yl-4,5-dihydro-1H-[1,2,4]triazol-3-yl)methyl]amino}benzamidine acetate] gave a pIC50 of 8.17.

In turn, `CCOc1cc(C(Nc2ccc(C(=N)N)cc2)c2nn(-c3ccccc3C(=O)O)c(=O)[nH]2)c(F)cc1OC` (racemic) [Example 122, (R) and (S)-2-{3[(4-carbamimidoylphenylamino)-(5-ethoxy-2-fluoro-4-methoxyphenyl)methyl]-5-oxo-4,5-dihydro-[1,2,4]triazol-1-yl}benzoic acid acetate] had a pIC50 of 8.70.

`COc1cc(C(Nc2ccc(C(=N)N)cc2)c2nn(-c3ncccc3F)c(=O)[nH]2)cc2c1OCC2` (racemic) [Example 123, (R) and (S)-4-({[1-(3-fluoropyridin-2-yl)-5-oxo-4,5-dihydro-1H-[1,2,4]triazol-3-yl]-(7-methoxy-2,3-dihydrobenzofuran-5-yl)methyl}amino)benzamidine acetate] had a pIC50 of 8.34.

`COCCc1cc(C(Nc2ccc(C(=N)N)cc2)c2nn(-c3ncccn3)c(=O)[nH]2)cc(OC)c1OC` (racemic) [Example 129, (R) and (S)-4-({[3,4-dimethoxy-5-(2-methoxyethyl)-phenyl]-(5-oxo-1-pyrimidin-2-yl-4,5-dihydro-1H-[1,2,4]triazol-3-yl)methyl}amino)benzamidine acetate]: the pIC50 is 8.12.

Regarding `COc1cc(C(Nc2ccc(C(=N)N)cc2)c2nn(-c3ncccn3)c(=O)[nH]2)cc2c1OCOCC2` (racemic) [Example 130, (R) and (S)-4-{[(4-methoxy-8,9-dihydro-5,7-dioxabenzocyclohepten-2-yl)-(5-oxo-1-pyrimidin-2-yl-4,5-dihydro-1H-[1,2,4]triazol-3-yl)methyl]amino}benzamidine acetate], the pIC50 was 7.97.

Regarding `COc1cc(C(Nc2ccc(C(=N)N)cc2)c2nn(-c3ncccn3)c(=O)[nH]2)cc(CC#N)c1F` (racemic) [Example 131, (R) and (S)-4-{[(3-cyanomethyl-4-fluoro-5-methoxyphenyl)-(5-oxo-1-pyrimidin-2-yl-4,5-dihydro-1H-[1,2,4]triazol-3-yl)methyl]amino}benzamidine acetate], the negative logarithm of the IC50 (pIC50) is 8.25.

The compound `CCOc1cc(C(Nc2ccc(C(=N)N)cc2)c2nn(-c3ncccc3F)c(=O)[nH]2)ccc1OC` (racemic) [Example 132, (R) and (S)-4-({(3-ethoxy-4-methoxyphenyl)-[1-(3-fluoro-pyridin-2-yl)-5-oxo-4,5-dihydro-1H-[1,2,4]triazol-3-yl]methyl}amino}benzamidine acetate] had a pIC50 of 8.62. Compared with the last compound, the pIC50 is 0.37 log units higher.

Turning to `COc1cc(C(Nc2ccc(C(=N)N)cc2)c2nn(-c3ncccc3F)c(=O)[nH]2)cc2c1OCOC2` (racemic) [Example 133, (R) and (S)-4-({[1-(3-fluoropyridin-2-yl)-5-oxo-4,5-dihydro-1H-[1,2,4]triazol-3-yl]-(8-methoxy-4H-benzo[1,3]dioxin-6-yl)methyl}amino)benzamidine acetate], the pIC50 was 8.20.

On to `COc1cc(OCCF)c(F)c(C(Nc2ccc(C(=N)N)cc2)c2nn(-c3ncccc3N)c(=O)[nH]2)c1` (racemic) [Example 136, (R) and (S)-4-({[1-(3-aminopyridin-2-yl)-5-oxo-4,5-dihydro-1H-[1,2,4]triazol-3-yl]-[2-fluoro-3-(2-fluoroethoxy)-5-methoxyphenyl]methyl}amino)benzamidine acetate], for which the pIC50 is 8.29. This pIC50 and that of the compound before are within 0.2 log units of each other.

Take `COc1cc(OC)c(F)c(C(Nc2ccc(C(=N)N)cc2)c2nn(-c3ncccc3N)c(=O)[nH]2)c1` (racemic) [Example 137, (R) and (S)-4-({[1-(3-aminopyridin-2-yl)-5-oxo-4,5-dihydro-1H-[1,2,4]triazol-3-yl]-(2-fluoro-3,5-dimethoxyphenyl)methyl}amino)benzamidine acetate]: the pIC50 was 7.99.

Take `COc1cc(F)c(C(Nc2ccc(C(=N)N)c(F)c2)c2nn(-c3ncccn3)c(=O)[nH]2)cc1OC` (racemic) [Example 143, (R) and (S)-2-fluoro-4-{[(2-fluoro-4,5-dimethoxyphenyl)-(5-oxo-1-pyrimidin-2-yl-4,5-dihydro-1H-[1,2,4]triazol-3-yl)methyl]amino}benzamidine acetate]: the pIC50 was 7.64.

Regarding `COc1cc(C(Nc2ccc(C(=N)N)cc2)c2nn(-c3cccnn3)c(=O)[nH]2)ccc1OCC#N` (racemic) [Example 144, (R) and (S)-4-{[(4-cyanomethoxy-3-methoxyphenyl)-(5-oxo-1-pyridazin-3-yl-4,5-dihydro-1H-[1,2,4]triazol-3-yl)methyl]amino}benzamidine acetate], the pIC50 is 8.11. This pIC50 is 0.47 log units higher than that of the compound before.

The compound `COc1cc(OC)c(F)c(C(Nc2ccc(C(=N)N)cc2)c2nn(-c3cccnn3)c(=O)[nH]2)c1` (racemic) [Example 145, (R) and (S)-4-{[(2-fluoro-3,5-dimethoxyphenyl)-(5-oxo-1-pyridazin-3-yl-4,5-dihydro-1H-[1,2,4]triazol-3-yl)methyl]amino}benzamidine acetate] showed a pIC50 of 8.06. This pIC50 and that of the compound before are within 0.2 log units of each other.

Compound `COc1cc(C(Nc2ccc(C(=N)N)cc2)c2nn(-c3cccnn3)c(=O)[nH]2)cc(CC#N)c1F` (racemic) [Example 146, (R) and (S)-4-{[(3-cyanomethyl-4-fluoro-5-methoxyphenyl)-(5-oxo-1-pyridazin-3-yl-4,5-dihydro-1H-[1,2,4]triazol-3-yl)methyl]amino}benzamidine acetate] gave a pIC50 of 8.09.

On to `COc1cc(OCC#N)c(F)c(C(Nc2ccc(C(=N)N)cc2)c2nn(-c3cccnn3)c(=O)[nH]2)c1` (racemic) [Example 148, (R) and (S)-{[(3-cyanomethoxy-2-fluoro-5-methoxyphenyl)-(5-oxo-1-pyridazin-3-yl-4,5-dihydro-1H-[1,2,4]triazol-3-yl)methyl]amino}benzamidine acetate], for which the negative-log IC50 (pIC50) is 8.06.

`COc1ccc(C(Nc2ccc(C(=N)N)cc2)c2nn(-c3cccnn3)c(=O)[nH]2)cc1OC` (racemic) [Example 149, (R) and (S)-4-{[(3,4-dimethoxyphenyl)-(5-oxo-1-pyridazin-3-yl-4,5-dihydro-1H-[1,2,4]triazol-3-yl)methyl]amino}benzamidine acetate] gave a pIC50 of 8.04.

`COc1cc(C(Nc2ccc(C(=N)N)cc2)c2nn(-c3cccnn3)c(=O)[nH]2)cc2c1OCOC2` (racemic) [Example 150, (R) and (S)-4-{[(8-methoxy-4H-benzo[1,3]dioxin-6-yl)-(5-oxo-1-pyridazin-3-yl-4,5-dihydro-1H[1,2,4]triazol-3-yl)methyl]amino}benzamidine acetate] gave a pIC50 of 8.05. The pIC50 values of the last two compounds are within 0.2 log units of each other.

The compound `COc1cc(OCCF)c(F)c(C(Nc2ccc(C(=N)N)cc2)c2nn(-c3cccnn3)c(=O)[nH]2)c1` (racemic) [Example 151, (R) and (S)-4-{[(2-fluoro-3-(2-fluoroethoxy)-5-methoxyphenyl)-(5-oxo-1-pyridazin-3-yl-4,5-dihydro-1H-[1,2,4]triazol-3-yl)methyl]amino}benzamidine acetate] gave a negative logarithm of the IC50 (pIC50) of 8.27.

Consider `COC(=O)c1sccc1-n1nc(C(Nc2ccc(C(=N)N)cc2)c2cc3c(c(OC)c2)OCOC3)[nH]c1=O` (racemic) [Example 152, (R) and (S)-3-{3-[(4-carbamimidoylphenylamino)-(8-methoxy-4H-benzo[1,3]dioxin-6-yl)methyl]-5-oxo-4,5-dihydro[1,2,4]triazol-1-yl}thiophene-2-carboxylic acid methyl ester acetate], for which the negative logarithm of the IC50 (pIC50) is 8.92.
